These results are taken from US6017962A, “Method of depletion of methionine in plasma and solid tumors and uses thereof” (Board of Regents, The University of Texas System, priority 1997, dated 2000).

What is called IC50 is the concentration needed to halve the response being measured.

Assay [1] deals with MGMT. The conditions noted are these: some tumor cell lines; von Wronski et al., 1994; cited from earlier work.
For assay [2], the system named is Methionine-dependent, mer^+ tumor cells. Put plainly: Cytotoxicity of BCNU (summary). Format: cell-based. The conditions noted are these: Homo sapiens. Here is the method:
(§1) The cytotoxicity of BCNU on cultured cells in MET^+ HCY^+ and MET^- HCY^+ was measured by a modification of the method of Branch et. al. (1993) as follows: methionine-dependent cells were seeded and cultured in MET^+ HCY^- in 35 mm petri dishes until they were nearly confluent. The cells were then transferred in MET^- HCY^+ and cultured for an additional 4 to 6 days at which time cell numbers were reduced due to cell death and inhibition of mitosis. Dead cells were removed and medium was replaced on a daily basis. Following this period in MET^- HCY^+ medium, remaining live cells were washed with PBS and then treated with various concentrations of BCNU in PBS for 1 hour at 37° C. while they were still attached. Subsequently, the BCNU was removed, replaced with MET^+ HCY^- medium and cultures were incubated for an additional 4 days at 37° C. in 6% CO2. At that time cells were trypsinized and counted using a Coulter-Counter (Coulter Electronics, Hialeah Fla.). The concentration of the drug that halves the growth rate of the tumor cells (IC50), was determined from plots of BCNU concentrations versus the percent change in cell numbers as compared to untreated controls within a four day interval from treatment (Jackson, 1992). The IC50 of BCNU on methionine-dependent cells cultured in MET^+ HCY^- or methionine independent cells cultured in either media was also determined by the same method.

Assay [3] deals with MET-independent or mer^- tumor cell lines and normal cells. Put plainly: Cytotoxicity of BCNU (summary). Format: cell-based. The conditions noted are these: MET^- HCY^+ versus MET^+ HCY^-. As to the method:
as §1

Assay [4] deals with H-1623. Put plainly: Cytotoxicity of BCNU. Format: cell-based. The conditions noted are these: Homo sapiens, 1 h BCNU, 4 days. Here is the method: as §1
In assay [5] the test system is U-87. Put plainly: Cytotoxicity of BCNU. Format: cell-based. The following applies: Homo sapiens, U-87 MG, U-87 (mer^-), 1 h BCNU, 4 days. Here is the method: as §1
The subject of assay [6] is Daoy. The assay can be described thus: Cytotoxicity of BCNU. Format: cell-based. The conditions noted are these: Homo sapiens. As to the method: as §1
Assay [7] relates to H-1944. The assay can be described thus: Cytotoxicity of BCNU. Format: cell-based. The following applies: Homo sapiens, 1 h BCNU, 4 days. Here is the method:
as §1

Assay [8] concerns NIH-3T3. The assay can be described thus: Cytotoxicity of BCNU. Format: cell-based. The conditions noted are these: Mus musculus, NIH3T3, 1 h BCNU, 4 days. As to the method:
as §1

Assay [9] deals with U-138. Put plainly: Cytotoxicity of BCNU. The conditions noted are these: Homo sapiens, 1 h BCNU, 4 days. Format: cell-based. As to the method: as §1
The test system of assay [10] is D-341. The assay can be described thus: Cytotoxicity of BCNU. Format: cell-based. The following applies: Homo sapiens, 1 h BCNU, 4 days. Here is the method:
as §1

Assay [11] concerns SW-40. Put plainly: Cytotoxicity of BCNU. Format: cell-based, human. The conditions noted are these: for IC50: Homo sapiens, SW-40 (mer^-), 1 h BCNU, 4 days. As to the method:
as §1

Assay [12] has as its system MGMT positive tumors. The conditions noted are these: prior depletion of MGMT; Dolan et al., 1993; Schold et al., 1996; cited from earlier work.
Assay [13] in a line: Plasma methionine and thiols after diet, methionine precursor and methioninase. Format: in vivo, nude mice. The following applies: met^- hcy^- chl^- diet, 8 h after precursor 50 mg/kg ip, no methioninase. As to the method: The methionine peak is marked with an asterik.
FIG. 7A: homocysteine thiolactone; FIG. 7B: homocysteine thiolactone+methioninase; FIG. 7C: homocystine; and FIG. 7D: homocystin+methioninase. All animals were killed 6 hours after the injection of the methionine precursor.
^1 Levels of total thiols in circulation 8 hours after injection (ip)
of met precursor and 6 hours after treatment with methioninase. Mean of 3
determinations ± SD. MET precursor was 50 mg/kg; methioninase
(abbreviated METH.) was 1000k U/kg.

Assay [14] deals with Daoy. The following applies: 48 hrs from repletion following 10 days in HCY.
The subject of assay [15] is MGMT. The conditions noted are these: Daoy; 48 hrs from repletion following 10 days in HCY.
Procedure: Detaching cells ascertained to be dead by trypan blue exclusion were removed by changing the medium every 48 hours. Cells were then either trypsinized and reseeded in the same medium or washed with PBS and supplied with the methionine-HCY^+ medium. Due to extensive death in this medium, it was necessary to remove detaching dead cells on a daily basis. Cells from both media were harvested at time intervals indicated and used to measure cell cycle status and MGMT activity. Cells from either cultures (5×10^7) were also harvested, washed with PBS and immediately frozen as a source of protein, DNA and RNA. All cells collected were live (>95%) as determined by trypan blue exclusion.
The [^3 H]DNA substrate for measurements of MGMT activity was synthesized as follows: One mCi ethanolic solution of N-[^3 H]methyl-N-nitrosourea (MNU) having specific activity 18.8 Ci/mmol (Amersham) was concentrated to 0.2 ml with a N2 stream and mixed with 1 ml of DNA solution (5 mg) in 0.02 M 2-amino-2-methyl-1,3-propanediol at pH 10. […]
The [^3 H]DNA contained 29.8 μCi of radioactivity (alkylation efficiency 3%) which was distributed as 3-methyladenine 3.5%, 7-MeG 79.6%, 1-methyladenine 0.6%, O^6 -MeG 9.0% and other adducts 7.3%. The specific activities of 7-MeG and O^6 -MeG were calculated to be 15.8±0.8 and 16.5±0.5 Ci/mmol respectively. […]
Where [16] appears, read: MET^+ HCY^- culture, read-out: IC50 (MET).
The mark [17] stands for this setting: MET^- HCY^+ culture, read-out: IC50 (HCY).

Read-outs that look alike come from different tables or passages of the source.

Take `Nc1ncn([C@@H]2O[C@H](CO)[C@@H](O)[C@H]2O)c(=O)n1` [5-azacytidine]: in [1], the “increase of the MGMT activity” value is on record as “substantial increase”.

As for `O=NN(CCCl)C(=O)NCCCl` [BCNU, 1,3-bis (2-chloroethyl)-1-nitrosourea], the IC50 is 45 to 90 µM in assay [2] (cultured in MET^+ HCY^-); 5 to 10 µM in [2] (cultured in MET^- HCY^+); 90 µM in assay [4] (NCI-H1623, MET^+ HCY^- culture, read-out: IC50 (MET)); 10 µM in assay [4] (NCI-H1623, MET^- HCY^+ culture, read-out: IC50 (HCY)); 15 µM in [5] (setting [16]); 15 µM in assay [5] (setting [17]). For the same compound, the IC50 in assay [6] (MET^+ HCY^- culture, 1 h BCNU, counted after 4 days, read-out: IC50 (MET)) was 45 µM; in assay [6] (cultured in MET^- HCY^+ 4 days before 1 h BCNU, read-out: IC50 (HCY)), about 5 µM; in assay [7] (NCI-H1944, MET^+ HCY^- culture, read-out: IC50 (MET)), 65 µM; in [7] (NCI-H1944, MET^- HCY^+ culture, read-out: IC50 (HCY)), 10 µM; in assay [8] (NIH-3T3, control mer+, methionine independent, MET^+ HCY^- culture, read-out: IC50 (MET)) it was 35 µM; in assay [8] (NIH-3T3, MET^- HCY^+ culture, read-out: IC50 (HCY)) it was 40 µM. In addition, the IC50 in assay [9] (setting [16]) was found to be 50 µM; in assay [9] (setting [17]), 10 µM; in assay [10] (D341, MET^+ HCY^- culture, read-out: IC50 (MET)), 65 µM; in assay [10] (D341, MET^- HCY^+ culture, read-out: IC50 (HCY)) it was 10 µM; in assay [11] (setting [16]), 10 µM; in [11] (setting [17]), 15 µM. The “sensitivity to BCNU” value in [3] is “unaffected”. Besides, the “resistance to BCNU upon methionine depletion” value in [11] (SWB-40, mer^-, methionine-dependent) is given as “not affected”.

Turning to `Nc1nc(OCc2ccccc2)c2[nH]cnc2n1` [O^6 -benzylguanine], the “increase in the efficacy of alkylating drugs such as BCNU” value in assay [12] is on record as “Significant increase”.

In [13], `NC1CCSC1=O` (centres unmarked) [homocysteine thiolactone] displayed a CYS of 100 ± 13 µM, a GSH of 81 µM, an HCY of 20 ± 3 µM and an MET of 12 ± 3 µM.

In assay [13], `N[C@@H](CCSSCC[C@H](N)C(=O)O)C(=O)O` [homocystine] returned a CYS of 100 ± 4 µM, a GSH of 56 ± 8 µM, an HCY of 17 ± 2 µM and an MET of 6 ± 2 µM.

Consider `CSCC[C@H](N)C(=O)O` [methionine], for which the “doubling time after repletion of methionine” value in assay [14] was determined as 22 h. Moreover, the “recovery of MGMT activity” value in assay [15] is reported as 65 % of the base line.
